# Measurements from patent US20230141600A1, “IMIDAZOPYRAZINE DERIVATIVES” (priority 2020, published 2023).
# Structures can show the parent of a compound that is named as a salt.
# System: Acinetobacter baumannii ATCC17961
# Assay: 90% growth inhibitory concentration (IC90) determination, antimicrobial susceptibility testing
# Format: cell-based
# Conditions: Acinetobacter baumannii, ATCC17961, 16 h, 90% growth inhibition, Iso-Sensitest broth, OD 600 nm over 16 h, 35±2° C.; read-out: ATCC 17961 IC90
# Method: Antimicrobial Susceptibility Testing:
# 90% Growth Inhibitory Concentration (IC90) Determination
# The in vitro antimicrobial activity of the compounds was determined according to the following procedure:
# The assay used a 10-points Iso-Sensitest broth medium to measure quantitatively the in vitro activity of the compounds against Acinetobacter baumannii ATCC17961 and ATCC17978.
# Stock compounds in DMSO were serially twofold diluted (e.g. range from 50 to 0.097 μM final concentration) in 384 wells microtiter plates and inoculated with 49 μl the bacterial suspension in Iso-Sensitest medium to have a final cell concentration of ˜5×10^(5) CFU/ml in a final volume/well of 50 ul/well. Microtiter plates were incubated at 35±2° C.
# Bacterial cell growth was determined with the measurement of optical density at λ=600 nm each minutes over a time course of 16 h. Growth inhibition was calculated during the logarithmic growth of the bacterial cells with determination of the concentration inhibiting 50% (IC50) and 90% (IC90) of the growth.
# Table 2 provides the 90% growth inhibitory concentrations (IC90) in micromoles per liter of the compounds of present invention obtained against the strain Acinetobacter baumannii ATCC17961.
row,IC90,Compound
1,725 nM,"CCc1cc(Nc2nccn3c(-c4ccc(OC(F)F)c(F)c4F)cnc23)ccc1C(=O)N1CC2(C1)CN(C(=O)C1CC[N+](C)(CC3CCNC3)CC1)C2 (centres unmarked) [Example 95, [4-[[3-[4-(difluoromethoxy)-2,3-difluoro-phenyl]imidazo[1,2-a]pyrazin-8-yl]amino]-2-ethyl-phenyl]-[2-[1-methyl-1-(pyrrolidin-3-ylmethyl)piperidin-1-ium-4-carbonyl]-2,6-diazaspiro[3.3]heptan-6-yl]methanone bis(2,2,2-trifluoroacetate)]"
2,1110 nM,"CCc1cc(Nc2nccn3c(-c4ccc(OC)c(F)c4F)cnc23)ccc1C(=O)N[C@@H](CNC(=O)C1CC[N+](C)(CC2CNC2)CC1)C(=O)OC (mixture of isomers) [Example 122, Methyl (2S)-3-[[1-(azetidin-3-ylmethyl)-1-methyl-piperidin-1-ium-4-carbonyl]amino]-2-[[4-[[3-(2,3-difluoro-4-methoxy-phenyl)imidazo[1,2-a]pyrazin-8-yl]amino]-2-ethyl-benzoyl]amino]propanoate formate 2,2,2-trifluoroacetate (Mixed Salt)]"
3,609 nM,"CCc1cc(Nc2nccn3c(-c4ccc(OC)c(F)c4F)cnc23)ccc1C(=O)NCC1CC[N+](CC)(CC2CNC2)CC1 (centres unmarked) [Example 143, N-[[1-(Azetidin-3-ylmethyl)-1-ethyl-piperidin-1-ium-4-yl]methyl]-4-[[3-(2,3-difluoro-4-methoxy-phenyl)imidazo[1,2-a]pyrazin-8-yl]amino]-2-ethyl-benzamide Formate]"
4,223 nM,"CCc1cc(Nc2nccn3c(-c4ccc(OC(F)F)c(F)c4F)cnc23)ccc1C(=O)NCCNC(=O)C1CC[N+](C)(CC2CCNC2)CC1 (centres unmarked) [Example 102, N-[2-[[4-[[3-[4-(Difluoromethoxy)-2,3-difluoro-phenyl]imidazo[1,2-a]pyrazin-8-yl]amino]-2-ethyl-benzoyl]amino]ethyl]-1-methyl-1-(pyrrolidin-3-ylmethyl)piperidin-1-ium-4-carboxamide bis(2,2,2-trifluoroacetate)]"
5,77.9 nM,"C[N+]1(CC2CCNC2)CCC(C(=O)N2CCN(C(=O)c3ccc(Nc4nccn5c(-c6ccc(OC(F)F)c(F)c6F)cnc45)cc3F)CC2)CC1 (centres unmarked) [Example 103, [4-[[3-[4-(Difluoromethoxy)-2,3-difluoro-phenyl]imidazo[1,2-a]pyrazin-8-yl]amino]-2-fluoro-phenyl]-[4-[1-methyl-1-(pyrrolidin-3-ylmethyl)piperidin-1-ium-4-carbonyl]piperazin-1-yl]methanone 2,2,2-trifluoroacetate]"
6,909 nM,"CCc1cc(Nc2nccn3c(-c4ccc(OC(F)F)c(F)c4F)cnc23)ccc1C(=O)N1CCN(C(=O)C2CC[N+](C)(CC3CNC3)CC2)CC1C(=O)OC (centres unmarked) [Example 93, Methyl 4-[1-(azetidin-3-ylmethyl)-1-methyl-piperidin-1-ium-4-carbonyl]-1-[4-[[3-[4-(difluoromethoxy)-2,3-difluoro-phenyl]imidazo[1,2-a]pyrazin-8-yl]amino]-2-ethyl-benzoyl]piperazine-2-carboxylate bis(2,2,2-trifluoroacetate)]"
7,81.1 nM,"C[N+]1(CC2CCNC2)CCC(C(=O)N2CCN(C(=O)c3ccc(Nc4nccn5c(-c6ccc(OC(F)F)c(F)c6F)cnc45)cc3Cl)CC2)CC1 (centres unmarked) [Example 116, [2-Chloro-4-[[3-[4-(difluoromethoxy)-2,3-difluoro-phenyl]imidazo[1,2-a]pyrazin-8-yl]amino]phenyl]-[4-[1-methyl-1-(pyrrolidin-3-ylmethyl)piperidin-1-ium-4-carbonyl]piperazin-1-yl]methanone Formate]"
8,434 nM,"CCc1cc(Nc2nccn3c(-c4ccc(OC)c(F)c4F)cnc23)ccc1C(=O)NCCCCC[N+](C)(CCCC(=O)O)CC1CNC1 (centres unmarked) [Example 107, Azetidin-3-ylmethyl-(3-carboxypropyl)-[5-[[4-[[3-(2,3-difluoro-4-methoxy-phenyl)imidazo[1,2-a]pyrazin-8-yl]amino]-2-ethyl-benzoyl]amino]pentyl]-methyl-ammonium 2,2,2-trifluoroacetate]"
9,67.7 nM,"CCc1cc(Nc2nccn3c(-c4ccc(OC)c(F)c4F)cnc23)ccc1C(=O)NC1CN(C(=O)C[N+](C)(C)CC(N)=O)C1 [Example 71, 2-Amino-N-(2-(3-(4-((3-(2,3-difluoro-4-methoxyphenyl)imidazo[1,2-a]pyrazin-8-yl)amino)-2-ethylbenzamido)azetidin-1-yl)-2-oxoethyl)-N,N-dimethyl-2-oxoethan-1-aminium Formate]"
10,4820 nM,"CCc1cc(Nc2nccn3c(-c4ccc(OC)c(F)c4F)cnc23)ccc1C(=O)NCCC[N+](C)(CC1CNC1)CC1CNC1 [Example 139, Bis(azetidin-3-ylmethyl)-[3-[[4-[[3-(2,3-difluoro-4-methoxy-phenyl)imidazo[1,2-a]pyrazin-8-yl]amino]-2-ethyl-benzoyl]amino]propyl]-methyl-ammonium bis(2,2,2-trifluoroacetate)]"
11,484 nM,"CCc1cc(Nc2nccn3c(-c4ccc(Oc5ncccn5)c(F)c4F)cnc23)ccc1C(=O)NCCCNC(=O)C1CC[N+](C)(CC2CCNC2)CC1 (centres unmarked) [Example 3, N-[3-[[4-[[3-(2,3-difluoro-4-pyrimidin-2-yloxy-phenyl)imidazo[1,2-a]pyrazin-8-yl]amino]-2-ethyl-benzoyl]amino]propyl]-1-methyl-1-(pyrrolidin-3-ylmethyl)piperidin-1-ium-4-carboxamide Formate]"

# More lines, now with the values behind:
row,Compound,IC90
1,"COc1ccc(-c2cnc3c(Nc4cc(C)c(C(=O)NCCOCC[N+](C)(C)C)c(F)c4)nccn23)c(F)c1F [Example 18, 2-(2-(4-((3-(2,3-Difluoro-4-methoxyphenyl)imidazo[1,2-a]pyrazin-8-yl)amino)-2-fluoro-6-methylbenzamido)ethoxy)-N,N,N-trimethylethan-1-aminium Hydrogen Carbonate]",336 nM
2,"Cc1cc(Nc2nccn3c(-c4ccc(OCC#N)c(F)c4F)cnc23)ccc1C(=O)N1CCN(C(=O)C[N+](C)(C)C)CC1 [Example 56, [2-[4-[4-[[3-[4-(Cyanomethoxy)-2,3-difluorophenyl]imidazo[1,2-a]pyrazin-8-yl]amino]-2-methylbenzoyl]piperazin-1-yl]-2-oxoethyl]-trimethylazanium Iodide]",59.6 nM
3,"CCc1cc(Nc2nccn3c(-c4ccc(OC(F)F)c(F)c4F)cnc23)ccc1C(=O)NCCCCC[N+](C)(CC1CNC1)CC1CNC1 [Example 89, Bis(azetidin-3-ylmethyl)-[5-[[4-[[3-[4-(difluoromethoxy)-2,3-difluoro-phenyl]imidazo[1,2-a]pyrazin-8-yl]amino]-2-ethyl-benzoyl]amino]pentyl]-methyl-ammonium bis(2,2,2-trifluoroacetate)]",634 nM
4,"C[N+](C)(C)CC(=O)NCCNC(=O)c1ccc(Nc2nccn3c(-c4c[nH]nc4C(F)(F)F)cnc23)cc1Cl [Example 58, [2-[2-[[2-Chloro-4-[[3-[3-(trifluoromethyl)-1H-pyrazol-4-yl]imidazo[1,2-a]pyrazin-8-yl]amino]benzoyl]amino]ethylamino]-2-oxo-ethyl]-trimethyl-ammonium formate]",1580 nM
5,"C[N+](C)(C)CC(=O)NCCCNC(=O)c1ccc(Nc2nccn3c(-c4c[nH]nc4C(F)(F)F)cnc23)cc1Cl [Example 7, [2-[3-[[2-Chloro-4-[[3-[3-(trifluoromethyl)-1H-pyrazol-4-yl]imidazo[1,2-a]pyrazin-8-yl]amino]benzoyl]amino]propylamino]-2-oxo-ethyl]-trimethyl-ammonium Formate]",1160 nM
6,"CCc1cc(Nc2nccn3c(-c4cn(CC(F)F)nc4C(F)(F)F)cnc23)ccc1C(=O)NCCCCC[N+](C)(CC(=O)O)CC1CNC1 (centres unmarked) [Example 8, azetidin-3-ylmethyl-(carboxymethyl)-[5-[[4-[[3-[1-(2,2-difluoroethyl)-3-(trifluoromethyl)pyrazol-4-yl]imidazo[1,2-a]pyrazin-8-yl]amino]-2-ethyl-benzoyl]amino]pentyl]-methyl-ammonium Formate]",600 nM
7,"C[N+](C)(C)CC(=O)N1CCN(C(=O)c2ccc(Nc3nccn4c(-c5c[nH]nc5C(F)(F)F)cnc34)cc2Cl)CC1 [Example 62, [2-[4-[2-Chloro-4-[[3-[3-(trifluoromethyl)-1H-pyrazol-4-yl]imidazo[1,2-a]pyrazin-8-yl]amino]benzoyl]piperazin-1-yl]-2-oxo-ethyl]-trimethyl-ammonium Formate]",449 nM
8,"CCOC(=O)C[N+](C)(C)CCOCCNC(=O)c1ccc(Nc2nccn3c(-c4ccc(OC)c(F)c4F)cnc23)cc1CC [Example 75, N-(2-(2-(4-((3-(2,3-Difluoro-4-methoxyphenyl)imidazo[1,2-a]pyrazin-8-yl)amino)-2-ethylbenzamido)ethoxy)ethyl)-2-ethoxy-N,N-dimethyl-2-oxoethan-1-aminium Formate]",65.8 nM

# Same assay, conditions: Acinetobacter baumannii, ATCC17961, 16 h, read-out: ATCC 17961 IC90
row,Compound,IC90
1,"CCc1cc(Nc2nccn3c(-c4ccc(OC)c(F)c4F)cnc23)ccc1C(=O)NCCCCC[N+](C)(CCCN)CC(=O)O (centres unmarked) [Example 104, 3-aminopropyl-(carboxymethyl)-[5-[[4-[[3-(2,3-difluoro-4-methoxy-phenyl)imidazo[1,2-a]pyrazin-8-yl]amino]-2-ethyl-benzoyl]amino]pentyl]-methyl-ammonium Formate]",118 nM
